From ChEMBL document CHEMBL5108010, “Structure-activity relationship studies on divalent naphthalene diimide G quadruplex ligands with anticancer and antiparasitic activity” (Bioorg Med Chem, 2022)

Test system: not listed separately
Test: Cytotoxicity against human MRC5 cells assessed as inhibition of cell proliferation incubated for 72 hrs by alamar blue assay
Assay type: toxicity, cell-based
Conditions: human, MRC5 cells
In the case of `CN1CCN(CC2(CN3C(=O)c4ccc5c6c(ccc(c46)C3=O)C(=O)N(CC3(CN4CCN(C)CC4)CC3)C5=O)CC2)CC1`, the IC50 at 72 h is reported as 1510 nM. For `C[n+]1ccc(CN2C(=O)c3ccc4c5c(ccc(c35)C2=O)C(=O)N(Cc2cc[n+](C)cc2)C4=O)cc1`, the IC50 at 72 h was 490 nM. `CN1CCN(CCCN2C(=O)c3ccc4c5c(ccc(c35)C2=O)C(=O)N(CCCN2CCN(C)CC2)C4=O)CC1` gave an IC50 at 72 h of 3900 nM. `CN1CCN(C(C)(C)CN2C(=O)c3ccc4c5c(ccc(c35)C2=O)C(=O)N(CC(C)(C)N2CCN(C)CC2)C4=O)CC1` gave an IC50 at 72 h of 3380 nM.

Test system: not listed separately
Test: Selectivity index, ratio of IC50 for cytotoxicity against human MRC5 cells to IC50 for antitrypanosomal activity against Trypanosoma brucei bloodstream form
Assay type: toxicity, cell-based
Conditions: MRC5 cells versus Trypanosoma brucei bloodstream form, read-out: Ratio IC50
Work on `CN1CCN(CC2(CN3C(=O)c4ccc5c6c(ccc(c46)C3=O)C(=O)N(CC3(CN4CCN(C)CC4)CC3)C5=O)CC2)CC1` yielded a selectivity ratio of 3.6. With `C[n+]1ccc(CN2C(=O)c3ccc4c5c(ccc(c35)C2=O)C(=O)N(Cc2cc[n+](C)cc2)C4=O)cc1` the selectivity ratio was 0.49. With `CN1CCN(C(C)(C)CN2C(=O)c3ccc4c5c(ccc(c35)C2=O)C(=O)N(CC(C)(C)N2CCN(C)CC2)C4=O)CC1` the selectivity ratio was 3.5.

Test system: Quadruplex DNA
Test: Binding affinity to G-quadruplex telomeric DNA F21T (5'-duplex GGG TTAGGG TTAGGG TTAGGG-3') (unknown origin) assessed as stabilization by measuring change in melting temperature at 1 uM in sodium buffer by FRET melting assay
Assay type: nucleic-acid assay
Conditions: not given
Work on `C[n+]1ccc(-c2c3nc(c(-c4cc[n+](C)cc4)c4ccc([nH]4)c(-c4cc[n+](C)cc4)c4ccc([nH]4)c(-c4cc[n+](C)cc4)c4nc2C=C4)C=C3)cc1` yielded a ΔTm of 34.2 °C.

Test system: Quadruplex DNA
Test: Binding affinity to G-quadruplex telomeric DNA F21T (5'-duplex GGG TTAGGG TTAGGG TTAGGG-3') (unknown origin) assessed as stabilization by measuring change in melting temperature at 10 uM in potassium buffer by FRET melting assay
Assay type: nucleic-acid assay
Conditions: not given
Work on `CN1CCN(CC2(CN3C(=O)c4ccc5c6c(ccc(c46)C3=O)C(=O)N(CC3(CN4CCN(C)CC4)CC3)C5=O)CC2)CC1` yielded a ΔTm of 18.5 °C. `C[n+]1ccc(CN2C(=O)c3ccc4c5c(ccc(c35)C2=O)C(=O)N(Cc2cc[n+](C)cc2)C4=O)cc1` showed a ΔTm of 13 °C. For `CN1CCN(CCCN2C(=O)c3ccc4c5c(ccc(c35)C2=O)C(=O)N(CCCN2CCN(C)CC2)C4=O)CC1`, the ΔTm was 20 °C. Compound `CN1CCN(C(C)(C)CN2C(=O)c3ccc4c5c(ccc(c35)C2=O)C(=O)N(CC(C)(C)N2CCN(C)CC2)C4=O)CC1` has a ΔTm of 20.7 °C.

Test system: Trypanosoma brucei
Test: Antitrypanosomal activity against Trypanosoma brucei bloodstream form assessed as inhibition of parasite growth incubated for 72 hrs by alamar blue assay
Assay type: functional, organism-based
Conditions: Trypanosoma brucei, 72 h
Work on `CN1CCN(CC2(CN3C(=O)c4ccc5c6c(ccc(c46)C3=O)C(=O)N(CC3(CN4CCN(C)CC4)CC3)C5=O)CC2)CC1` yielded an IC50 of 420 nM. `C[n+]1ccc(CN2C(=O)c3ccc4c5c(ccc(c35)C2=O)C(=O)N(Cc2cc[n+](C)cc2)C4=O)cc1` gave an IC50 of 980 nM. For `CN1CCN(CCCN2C(=O)c3ccc4c5c(ccc(c35)C2=O)C(=O)N(CCCN2CCN(C)CC2)C4=O)CC1`, the IC50 was 610 nM. In the case of `CN1CCN(C(C)(C)CN2C(=O)c3ccc4c5c(ccc(c35)C2=O)C(=O)N(CC(C)(C)N2CCN(C)CC2)C4=O)CC1`, the IC50 is reported as 960 nM.

Test system: Quadruplex DNA
Test: Binding affinity to Trypanosoma brucei G-quadruplex telomeric DNA FEBR1T (5'-duplex GGG TTAGGG TTAGGG TTAGGG-3') assessed as stabilization by measuring change in melting temperature at 1 uM in potassium buffer by FRET melting assay
Assay type: nucleic-acid assay
Conditions: not given
For `C[n+]1ccc(-c2c3nc(c(-c4cc[n+](C)cc4)c4ccc([nH]4)c(-c4cc[n+](C)cc4)c4ccc([nH]4)c(-c4cc[n+](C)cc4)c4nc2C=C4)C=C3)cc1`, the ΔTm was 28 °C.

Test system: Quadruplex DNA
Test: Binding affinity to G-quadruplex telomeric DNA F21T (5'-duplex GGG TTAGGG TTAGGG TTAGGG-3') (unknown origin) assessed as stabilization by measuring change in melting temperature at 10 uM in sodium buffer by FRET melting assay
Assay type: nucleic-acid assay
Conditions: not given
Compound `CN1CCN(CC2(CN3C(=O)c4ccc5c6c(ccc(c46)C3=O)C(=O)N(CC3(CN4CCN(C)CC4)CC3)C5=O)CC2)CC1` has a ΔTm of 7.7 °C. `C[n+]1ccc(CN2C(=O)c3ccc4c5c(ccc(c35)C2=O)C(=O)N(Cc2cc[n+](C)cc2)C4=O)cc1` gave a ΔTm of 4.9 °C. `CN1CCN(CCCN2C(=O)c3ccc4c5c(ccc(c35)C2=O)C(=O)N(CCCN2CCN(C)CC2)C4=O)CC1` gave a ΔTm of 2 °C. For `CN1CCN(C(C)(C)CN2C(=O)c3ccc4c5c(ccc(c35)C2=O)C(=O)N(CC(C)(C)N2CCN(C)CC2)C4=O)CC1`, the ΔTm was 10.2 °C.

Test system: not listed separately
Test: Binding affinity to hairpin duplex DNA F10T (unknown origin) assessed as stabilization by measuring change in melting temperature at 1 uM in potassium buffer by FRET melting assay
Conditions: not given
Work on `C[n+]1ccc(-c2c3nc(c(-c4cc[n+](C)cc4)c4ccc([nH]4)c(-c4cc[n+](C)cc4)c4ccc([nH]4)c(-c4cc[n+](C)cc4)c4nc2C=C4)C=C3)cc1` yielded a ΔTm of 7.2 °C.

Test system: Leishmania major
Test: Antileishmanial activity against Leishmania major (MHOM/IL/80/Friedlin) promastigotes assessed as inhibition of parasite growth incubated for 72 hrs by MTT assay
Assay type: functional, organism-based
Conditions: Leishmania major, MHOM/IL/80/Friedlin, 72 h
For `CN1CCN(CC2(CN3C(=O)c4ccc5c6c(ccc(c46)C3=O)C(=O)N(CC3(CN4CCN(C)CC4)CC3)C5=O)CC2)CC1`, the IC50 was 12.7 µM. Work on `C[n+]1ccc(CN2C(=O)c3ccc4c5c(ccc(c35)C2=O)C(=O)N(Cc2cc[n+](C)cc2)C4=O)cc1` yielded an IC50 of 1.56 µM. `CN1CCN(CCCN2C(=O)c3ccc4c5c(ccc(c35)C2=O)C(=O)N(CCCN2CCN(C)CC2)C4=O)CC1` gave an IC50 of 0.47 µM. Compound `CN1CCN(C(C)(C)CN2C(=O)c3ccc4c5c(ccc(c35)C2=O)C(=O)N(CC(C)(C)N2CCN(C)CC2)C4=O)CC1` has an IC50 of 24.6 µM.

Test system: not listed separately
Test: Selectivity index, ratio of IC50 for cytotoxicity against human MRC5 cells to IC50 for cytotoxicity against human HeLa cells
Assay type: toxicity, cell-based
Conditions: MRC5 cells versus HeLa cells, read-out: Ratio IC50
For `CN1CCN(CC2(CN3C(=O)c4ccc5c6c(ccc(c46)C3=O)C(=O)N(CC3(CN4CCN(C)CC4)CC3)C5=O)CC2)CC1`, the selectivity ratio was 0.85. In the case of `C[n+]1ccc(CN2C(=O)c3ccc4c5c(ccc(c35)C2=O)C(=O)N(Cc2cc[n+](C)cc2)C4=O)cc1`, the selectivity ratio is reported as 0.033. Work on `CN1CCN(C(C)(C)CN2C(=O)c3ccc4c5c(ccc(c35)C2=O)C(=O)N(CC(C)(C)N2CCN(C)CC2)C4=O)CC1` yielded a selectivity ratio of 0.76.

Test system: Quadruplex DNA
Test: Binding affinity to G-quadruplex telomeric DNA F21T (5'-duplex GGG TTAGGG TTAGGG TTAGGG-3') (unknown origin) assessed as stabilization by measuring change in melting temperature at 1 uM in potassium buffer by FRET melting assay
Assay type: nucleic-acid assay
Conditions: not given
Compound `C[n+]1ccc(-c2c3nc(c(-c4cc[n+](C)cc4)c4ccc([nH]4)c(-c4cc[n+](C)cc4)c4ccc([nH]4)c(-c4cc[n+](C)cc4)c4nc2C=C4)C=C3)cc1` has a ΔTm of 28.1 °C.

Test system: Quadruplex DNA
Test: Binding affinity to G-quadruplex telomeric DNA FMycT (5'-duplex GGG TTAGGG TTAGGG TTAGGG-3') (unknown origin) assessed as stabilization by measuring change in melting temperature at 1 uM in potassium buffer by FRET melting assay
Assay type: nucleic-acid assay
Conditions: not given
With `C[n+]1ccc(-c2c3nc(c(-c4cc[n+](C)cc4)c4ccc([nH]4)c(-c4cc[n+](C)cc4)c4ccc([nH]4)c(-c4cc[n+](C)cc4)c4nc2C=C4)C=C3)cc1` the ΔTm was 27.5 °C.

Test system: not listed separately
Test: Binding affinity to hairpin duplex DNA F10T (unknown origin) assessed as stabilization by measuring change in melting temperature at 10 uM in potassium buffer by FRET melting assay
Conditions: not given
With `CN1CCN(CC2(CN3C(=O)c4ccc5c6c(ccc(c46)C3=O)C(=O)N(CC3(CN4CCN(C)CC4)CC3)C5=O)CC2)CC1` the ΔTm was 0.5 °C. For `C[n+]1ccc(CN2C(=O)c3ccc4c5c(ccc(c35)C2=O)C(=O)N(Cc2cc[n+](C)cc2)C4=O)cc1`, the ΔTm was 5 °C. For `CN1CCN(CCCN2C(=O)c3ccc4c5c(ccc(c35)C2=O)C(=O)N(CCCN2CCN(C)CC2)C4=O)CC1`, the ΔTm was 3 °C. Compound `CN1CCN(C(C)(C)CN2C(=O)c3ccc4c5c(ccc(c35)C2=O)C(=O)N(CC(C)(C)N2CCN(C)CC2)C4=O)CC1` has a ΔTm of 0.2 °C.

Test system: HeLa
Test: Cytotoxicity against human HeLa cells assessed as inhibition of cell proliferation incubated for 72 hrs by alamar blue assay
Assay type: functional, cell-based
Conditions: Homo sapiens, HeLa, 72 h
With `CN1CCN(CC2(CN3C(=O)c4ccc5c6c(ccc(c46)C3=O)C(=O)N(CC3(CN4CCN(C)CC4)CC3)C5=O)CC2)CC1` the IC50 was 1.77 µM. In the case of `C[n+]1ccc(CN2C(=O)c3ccc4c5c(ccc(c35)C2=O)C(=O)N(Cc2cc[n+](C)cc2)C4=O)cc1`, the IC50 is reported as 14.7 µM. Work on `CN1CCN(CCCN2C(=O)c3ccc4c5c(ccc(c35)C2=O)C(=O)N(CCCN2CCN(C)CC2)C4=O)CC1` yielded an IC50 of 0.41 µM. `CN1CCN(C(C)(C)CN2C(=O)c3ccc4c5c(ccc(c35)C2=O)C(=O)N(CC(C)(C)N2CCN(C)CC2)C4=O)CC1` gave an IC50 of 4.47 µM.

Test system: Quadruplex DNA
Test: Binding affinity to G-quadruplex telomeric DNA FMycT (5'-duplex GGG TTAGGG TTAGGG TTAGGG-3') (unknown origin) assessed as stabilization by measuring change in melting temperature at 10 uM in potassium buffer by FRET melting assay
Assay type: nucleic-acid assay
Conditions: not given
Work on `CN1CCN(CC2(CN3C(=O)c4ccc5c6c(ccc(c46)C3=O)C(=O)N(CC3(CN4CCN(C)CC4)CC3)C5=O)CC2)CC1` yielded a ΔTm of 15 °C. For `C[n+]1ccc(CN2C(=O)c3ccc4c5c(ccc(c35)C2=O)C(=O)N(Cc2cc[n+](C)cc2)C4=O)cc1`, the ΔTm was 20.1 °C. Compound `CN1CCN(CCCN2C(=O)c3ccc4c5c(ccc(c35)C2=O)C(=O)N(CCCN2CCN(C)CC2)C4=O)CC1` has a ΔTm of 13 °C. Compound `CN1CCN(C(C)(C)CN2C(=O)c3ccc4c5c(ccc(c35)C2=O)C(=O)N(CC(C)(C)N2CCN(C)CC2)C4=O)CC1` has a ΔTm of 14.8 °C.

Test system: not listed separately
Test: Selectivity index, ratio of IC50 for cytotoxicity against human MRC5 cells to IC50 for antileishmanial activity against Leishmania major (MHOM/IL/80/Friedlin) promastigotes
Assay type: toxicity, cell-based
Conditions: read-out: Ratio IC50
With `CN1CCN(CC2(CN3C(=O)c4ccc5c6c(ccc(c46)C3=O)C(=O)N(CC3(CN4CCN(C)CC4)CC3)C5=O)CC2)CC1` the selectivity ratio was 0.12. Work on `C[n+]1ccc(CN2C(=O)c3ccc4c5c(ccc(c35)C2=O)C(=O)N(Cc2cc[n+](C)cc2)C4=O)cc1` yielded a selectivity ratio of 0.31. In the case of `CN1CCN(C(C)(C)CN2C(=O)c3ccc4c5c(ccc(c35)C2=O)C(=O)N(CC(C)(C)N2CCN(C)CC2)C4=O)CC1`, the selectivity ratio is reported as 0.14.

Test system: Quadruplex DNA
Test: Binding affinity to Trypanosoma brucei G-quadruplex telomeric DNA FEBR1T (5'-duplex GGG TTAGGG TTAGGG TTAGGG-3') assessed as stabilization by measuring change in melting temperature at 10 uM in potassium buffer by FRET melting assay
Assay type: nucleic-acid assay
Conditions: not given
Compound `CN1CCN(CC2(CN3C(=O)c4ccc5c6c(ccc(c46)C3=O)C(=O)N(CC3(CN4CCN(C)CC4)CC3)C5=O)CC2)CC1` has a ΔTm of 15.5 °C. With `C[n+]1ccc(CN2C(=O)c3ccc4c5c(ccc(c35)C2=O)C(=O)N(Cc2cc[n+](C)cc2)C4=O)cc1` the ΔTm was 9 °C. Compound `CN1CCN(CCCN2C(=O)c3ccc4c5c(ccc(c35)C2=O)C(=O)N(CCCN2CCN(C)CC2)C4=O)CC1` has a ΔTm of 11 °C. `CN1CCN(C(C)(C)CN2C(=O)c3ccc4c5c(ccc(c35)C2=O)C(=O)N(CC(C)(C)N2CCN(C)CC2)C4=O)CC1` showed a ΔTm of 4 °C.
